In patent publication US20230338539A1, “METHOD OF TREATING DIFFICULT TO ACCESS TUMORS WITH PHOTOACTIVATED CANCER THERAPY” (priority 2020, published 2023):

Legend:
[1] = system: syngeneic 4T1-HER2 tumors; experiment: In-vivo X-PACT trial on syngeneic tumors (FIG. 6); design: species or system BALB/c mice; conditions: psoralen (AMT) alone with x-ray, phosphors alone with x-ray; relative to in-vitro expectation
Procedure: There were 6-8 mice per arm, and the study was repeated a second time, yielding effective sample sizes of 12-16. […] In the separate psoralen and phosphor control arms (blue and red respectively), 5 μM psoralen (AMT) and 100 μg of phosphor where applied. A consistent x-ray irradiation technique was used for all arms (except saline control) which was 2 Gy delivered at 75 kVp by 30 mA in 3 minutes.

[2] = system: CT2A (murine malignant glioma); experiment: UV light activated psoralen, Cell-Titer-Glo Luminescence Cell Viability Assay (FIG. 3A); assay type: cell-based; conditions: psoralen 40 μM; UV light 0, 0.25, 0.5, 1.0 J/cm^2
Procedure: (§1) Metabolic cell viability was also assessed visually using Methylene blue staining and ATP-induced Luminescence imaging (Cell-Titer-Glo® Luminescence Cell Viability Assay). The luminescence imaging permitted investigation of the cytotoxicity of psoralen activated directly with a UV lamp, and in the absence of phosphors and x-ray radiation. […] N=4 for each cell line at each UV light condition (0, 0.25, 0.5, 1.0 J/cm^2). The psoralen concentration was 40 μM.

4T1 = experiment: as above; assay type: cell-based, murine; conditions: psoralen 40 μM; UV light 0, 0.25, 0.5, 1.0 J/cm^2
Procedure: as §1

KP158B (sarcoma) = experiment: as above; assay type: cell-based, murine; conditions: psoralen 40 μM; UV light 0, 0.25, 0.5, 1.0 J/cm^2
Procedure: as §1

4T1-HER2 cells = conditions: multi-variable regression on 36 independent irradiation experiments

With `O=c1ccc2cc3ccoc3cc2o1` [psoralen] the “component effect in control arms” value [1] was “slightly higher component effect”, the “effect of UV light activated psoralen on viable cells” value (“effect of UV light activated psoralen” below) [2] was “reduce viable cells” and the “effect of UV light activated psoralen” value (4T1) was “reduce viable cells”. The “effect of UV light activated psoralen” value (KP158B (sarcoma)) was “reduce viable cells” and the “effect on cytotoxicity (Annexin V signal) of component alone” value (4T1-HER2 cells) was “neither psoralen nor phosphor alone had a strong effect on cytotoxicity”.
